Measured values as given in PMC6105163, “Abaloparatide Exerts Bone Anabolic Effects with Less Stimulation of Bone Resorption-Related Factors: A Comparison with Teriparatide” (Calcified Tissue International, 2018).

Legend:
[1] = test system: rat osteoblastic cell line UMR-106; test: cAMP accumulation assay in UMR-106; type: cell-based; conditions: for cAMP accumulation, in words: UMR-106, 10 min (Fig. 1b), n = 3 replicate wells; for EC50 / Emax, cAMP accumulation: UMR-106, 10 min, 2 mmol/L 3-isobutyl-1-methylxanthine, mean ± s.e.m., three independent experiments, each triplicate; for EC50: P = 0.0067 ABL vs TPTD; for Emax, cAMP accumulation: P = 0.84 ABL vs TPTD
Description: (§1) The human osteoblastic cell line SaOS-2 and the rat osteoblastic cell line UMR-106 were purchased from the European Collection of Cell Cultures (Wiltshire, UK). SaOS-2 and UMR-106 were maintained in growth medium (GM): McCoy’s 5A (for SaOS-2) or Dulbecco’s Modified Eagle’s Medium (for UMR-106) supplemented with 10% FBS and 1% penicillin/streptomycin at 37 °C with 5% CO2. To initiate cell differentiation, cells were grown in differentiation medium (DM): GM containing 50 µg/mL ascorbic acid, 10 mmol/L β-glycerophosphate, and 10 nmol/L dexamethasone. The culture medium was exchanged every 6 days or less.
(§2) Cells were cultured in 96-well plates at a density of 4 × 10^4 cells/well in GM overnight. The medium was replaced with serum-free GM (containing 0.1% BSA instead of 10% FBS) for culture under starvation conditions. Twenty-four hours after the start of starvation, ABL, TPTD, or vehicle (water containing 0.1% BSA) were added to the cells with 2 mmol/L of 3-isobutyl-1-methylxanthine for 10 min. Cells were lysed and accumulated cAMP was measured using the cAMP-Screen System (Applied Biosystems, Waltham, MA, USA) according to the manufacturer’s instructions.
(§3) All data are expressed as means ± s.e.m. For calculation of EC50 and Emax, 4-parameter logistic curve fitting was performed. Student’s t test was used for two-group comparisons. Dunnett’s or Tukey’s test was used for multiple comparisons. Significance was inferred from P values of < 0.05. All data were analyzed using GraphPad Prism version 6.03 (GraphPad Software, La Jolla, CA, USA).

[2] = test system: patients with osteoporosis; conditions: cited from earlier work
[3] = test system: OVX rats; test: Bone resorption marker urine DPD/Cr in OVX rats; type: in vivo, Sprague–Dawley rats (female); conditions: once daily s.c.; for urinary DPD/Cr at 5.0 nmol/kg: day 28; for urinary DPD/Cr, significance: day 28, n = 8 or 9
Text: Ten-week-old female Sprague–Dawley rats were purchased from Charles River Laboratories Japan, Inc. (Kanagawa, Japan) and ovariectomized at 12 weeks old. Thirty-five days after surgery, rats received once daily subcutaneous injection of ABL, TPTD, or vehicle (saline containing 0.1% heat-inactivated rat serum) for 28 days. Day 0 indicates the day when administration was started. On day 26, rats were anesthetized with intraperitoneally administered pentobarbital sodium and the lumbar spine (L4 and L5) BMD was measured with a PIXImus2 (GE Healthcare, Chicago, IL). Blood (collected from the tail vein) and urine samples were obtained on day 28. Prior to collection, rats were fasted for 15–17 h. Rats were euthanized after the blood and urine collection, and the lumbar spine was removed for the measurement of bone strength. All experimental procedures were approved by the Animal Care and Use Committee of Teijin Institute for Bio-Medical Research.
Serum P1NP concentration was measured with a Rat/Mouse PINP EIA kit (Immunodiagnostic Systems, Boldon, UK). Urine DPD concentration was measured with an Osteolinks DPD kit (Quidel, San Diego, CA, USA). Urine creatinine (Cr) concentration was measured with a 7180 Autoanalyzer (Hitachi High-Technologies Corporation, Tokyo, Japan).

[4] = test system: human osteoblastic cell line SaOS-2; test: cAMP accumulation assay in SaOS-2; type: cell-based; conditions: for cAMP accumulation, in words: SaOS-2, 10 min (Fig. 1a), n = 3 replicate wells; for EC50 / Emax, cAMP accumulation: SaOS-2, 10 min, 2 mmol/L 3-isobutyl-1-methylxanthine, mean ± s.e.m., three independent experiments, each triplicate; for EC50: cAMP-Screen System, P = 0.13 ABL vs TPTD; for Emax, cAMP accumulation: P = 0.96 ABL vs TPTD
Description: as §1, §2, §3

[5] = test system: osteocytes; conditions: ref [11], [12]; cited from earlier work
Text: The mechanism of action of TPTD on bone turnover is not fully understood; however, many studies have examined the molecular mechanisms in recent decades. According to a previous study, PTH(1–34) acts on osteoblasts and indirectly induces bone resorption by activating osteoclasts. PTH(1–34) increases the expression of receptor activator of nuclear factor kappa-B ligand (RANKL) and macrophage colony-stimulating factor (M-CSF) and decreases the expression of osteoprotegerin (OPG), a decoy receptor of RANKL [9]. These effects of PTH(1–34) further promote the maturation of osteoclasts with ... || Finally, we evaluated the effects of ABL on WNT signaling antagonists. WNT signaling antagonists such as sclerostin and DKK1 are secreted from osteocytes. They inhibit bone formation by antagonizing canonical WNT ligands and subsequently suppress WNT-mediated signaling pathways. […] We therefore evaluated the effects of ABL on WNT signaling antagonists in comparison with TPTD. It is generally known that human osteocytes have been diffic ...

[6] = test system: osteoporosis; conditions: cited from earlier work
Text: In fact, teriparatide (TPTD), the N-terminal 34 amino acids fragment of PTH, is currently the only bone anabolic agent used for the treatment of osteoporosis, by daily or weekly subcutaneous administration.

[7] = test system: cAMP and PKC; conditions: ref [24]; cited from earlier work
Text: There is another possibility that the two peptides could show the different activity on protein kinase C (PKC). PKC is the downstream signal of PTH1R and is involved in the stimulation of bone resorption-related factors and bone catabolism. In fact, ostabolin, an amidated form of human PTH(1–31), differs from PTH(1–34) in PKC activation.

[8] = test system: osteoblasts; conditions: cited from earlier work
Text: The mechanism of action of TPTD on bone turnover is not fully understood; however, many studies have examined the molecular mechanisms in recent decades. According to a previous study, PTH(1–34) acts on osteoblasts and indirectly induces bone resorption by activating osteoclasts. PTH(1–34) increases the expression of receptor activator of nuclear factor kappa-B ligand (RANKL) and macrophage colony-stimulating factor (M-CSF) and decreases the expression of osteoprotegerin (OPG), a decoy receptor of RANKL [9]. These effects of PTH(1–34) further promote the maturation of osteoclasts with ... || We next investigated the effect of ABL on bone formation in SaOS-2. In the previous study, bone formation related to PTH1R signaling was enhanced by the intermittent treatment of TPTD in osteoblasts. This anabolic effect of intermittent TPTD treatment was mediated by IGF-1, which promoted the differentiation and mineralization of osteoblasts. We therefore evaluated the effects on IGF-1 and osteocalcin, a marker gene for differentiated osteoblasts, with a repeating 6-h exposure cycle of ABL and TPTD in SaOS-2 (Fig. 3a). As expected, ABL as well as TPTD increased the gene expressio ...

[9] = subcutaneous injection, ref [14]

## [Glu^22,25, Leu^23,28,31, Aib^29, Lys^26,30] human PTHrP(1–34)–NH2 [Abaloparatide]
[1]
  cAMP accumulation, in words: dose-dependently increased cAMP
  EC50: 0.84 ± 0.03 nM
  Emax, cAMP accumulation: 278.4 ± 20.8 nmol/L
[2]; daily subcutaneous, ref [14]
  BMD at the hip and spine: robust BMD increases
  incidence of vertebral and non-vertebral fractures: reduced incidence
[2]; human, in vivo, sc
  calcemic effect vs TPTD: reduced as compared with TPTD
[2]; ref [14]
  bone formation and resorption markers: increased both bone formation and resorption
  bone formation and resorption markers vs TPTD: attenuated as compared with TPTD
[2]; [9]
  bone formation marker: increased
  bone resorption marker vs TPTD: less stimulation of the bone resorption marker than observed for TPTD
[3]
  urinary DPD/Cr at 5.0 nmol/kg: a slight increase
  urinary DPD/Cr, significance: no significant differences
[4]
  cAMP accumulation, in words: dose-dependently increased cAMP
  EC50: 5.1 ± 0.4 nM
  Emax, cAMP accumulation: 21.9 ± 1.4 nmol/L
[4]; SaOS-2, Table 1
  EC50 and Emax of ABL compared with TPTD: no significant differences

## human PTH(1–34) [Teriparatide]
[5]
  expression of WNT signaling antagonists in osteocytes: inhibited
  secretion of WNT signaling antagonists such as sclerostin and DKK1: inhibiting
[6]; daily or weekly subcutaneous
  BMD vs antiresorptive agents such as bisphosphonates: greater than antiresorptive agents
  effect on the hip: modest
[6]; in vivo
  blood calcium: mildly increased
[7]
  cAMP accumulation and PKC activation: stimulated both cAMP and PKC
[1]
  cAMP accumulation, in words: dose-dependently increased cAMP
  EC50: 1.18 ± 0.06 nM
  Emax, cAMP accumulation: 271.4 ± 25.0 nmol/L
[8]; intermittent treatment, osteoblasts, ref [18]
  bone formation related to PTH1R signaling: enhanced
[8]; ref [9]
  OPG expression: decreases
  RANKL and M-CSF expression: increases
[8]; ref [10]
  IGF-1 expression: enhancement
[3]
  urinary DPD/Cr at 5.0 nmol/kg: a slight increase
  urinary DPD/Cr, significance: no significant differences
[4]
  cAMP accumulation, in words: dose-dependently increased cAMP
  EC50: 3.9 ± 0.5 nM
  Emax, cAMP accumulation: 22.0 ± 1.5 nmol/L
